Test results as given in patent US6403533B2, “Stabilized microbicide formulation” (Rohm and Haas Company, priority 2000, dated 2002).

Assay: Visual examination for brown precipitate formation upon storage of dilute aqueous CMI/MI solutions
Type: physicochemical
Conditions: storage at 55 °C, 30 ppm copper ion
Protocol: An advantage of the compositions of the present invention is that they are both physically and chemically stable as prepared and upon storage. […] By “physically stable” we mean that the compositions are fluid and show no visible brown precipitate formation after storage for at least 4 weeks at 55° C., and preferably for at least 8 weeks at 55° C. By “chemically stable” is meant that the 3-isothiazolone, particularly the CMI compound, retains at least 60%, preferably at least 70% and more preferably at least 80%, of its original concentration in the dilute solution composition after storage for at least 4 weeks at 55° C., and preferably for at least 8 weeks at 55° C.
Some embodiments of the invention are described in detail in the following Examples. All ratios, parts and percentages are expressed by weight unless otherwise specified, and all reagents used are of good commercial quality unless otherwise specified. The level of copper is reported in ppm as the level of cupric ion. Samples were considered stable when the samples were free of brown precipitate after being stored at least 4 weeks, and preferably at least 8 weeks, at 55° C. Abbreviations used in the Examples and Tables are listed below with the corresponding descriptions.
The samples tested were prepared by adding known amounts of 3-isothiazolone, copper sulfate pentahydrate, water-soluble organic solvent and DI water to a 100-ml glass jar equipped with a magnetic stir bar. The 3-isothiazolone used was an approximate 3:1 (weight/weight) mixture of CMI and MI (98% purity). Ingredients were combined in a manner to provide test solutions containing 1.5% of the 3-isothiazolone (1.53 g per 100 g total solution), 30 ppm copper ion (0.0118 g copper sulfate pentahydrate per 100 g total solution) and various concentrations of water-soluble organic solvent (0 g, 1 g, 5 g, 10 g, 25 g and 50 g per 100 g total solution, corresponding to 0%, 1%, 5%, 10%, 25% or 50% solvent, respectively); the remainder of the solution (to 100 g total) was made up with DI water. Each sample was stirred until all solids were dissolved; portions (approximately 10 g) were then transferred to 20-ml glass vials and stored at room temperature or in an oven at 55° C. The samples were visually examined at various time points to determine the formation of brown precipitate and analyzed by HPLC/UV detection to determine the amount of CMI remaining; in all cases the amount of remaining MI was unchanged (100% of original value).

Row | Compound | stabilizing effect of the solvent regarding prevention of brown precipitate formation (in words)
1 | OCCCCCO [1,5-pentanediol, 1,5-Pentandiol (Pentamethylene Glycol)] | effective stabilizing solvents at use levels above 1%
2 | CC(O)CO (stereo not shown) [PG, Propylene Glycol (1,2-Propanediol)] | effective stabilizing solvent above levels of 1%
3 | CCO [ethanol, Ethanol] | effective stabilizing solvents at use levels above 1%
4 | CCOC(C)=O [ethyl acetate, Ethyl Acetate] | effective stabilizing solvents at use levels above 1%
